# Results taken from patent publication US8106055B2, “Substituted amide compounds” (Gruenenthal GmbH, priority 2007, dated 2012).
# Key:
# [1] = target: T1, bradykinin 1 receptor (B1R) of the rat (Rattus norvegicus, UniProt P97583); test: Functional investigation on the rat bradykinin 1 receptor (B1R), Ca2+ FLIPR assay in CHO K1 rB1R cells; assay type: cell-based; settings: B1R antagonism rat; test substance 10 μM; Ca2+ FLIPR, CHO K1 rB1R cells
# T1 construct: expressed in transfected cells; host or cells: CHO K1 cells
# T1 sequence (P97583 1-337): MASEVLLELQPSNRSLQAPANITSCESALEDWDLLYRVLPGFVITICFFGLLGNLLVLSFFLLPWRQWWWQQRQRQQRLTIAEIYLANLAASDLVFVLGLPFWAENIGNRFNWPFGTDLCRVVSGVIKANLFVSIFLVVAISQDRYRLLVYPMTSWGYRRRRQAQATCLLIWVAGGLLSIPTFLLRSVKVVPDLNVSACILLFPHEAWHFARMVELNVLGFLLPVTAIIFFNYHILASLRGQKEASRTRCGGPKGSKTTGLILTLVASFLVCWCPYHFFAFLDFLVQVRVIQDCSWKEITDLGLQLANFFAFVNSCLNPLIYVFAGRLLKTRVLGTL
# Summary of the method: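 Fluo-4 Ca2+ readout, peak fluorescence. Stable CHO K1 transfectants; compound pre-incubated 10-20 min, then EC80 agonist—Lys-Des-Arg9-BK for hB1R, Des-Arg9-BK for rB1R. % inhibition vs maximal inhibition; IC50 from multiple concentrations, duplicate/triplicate, ≥2 independent runs.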
# [2] = target: T2, serotonin (5-HT) reuptake (Rattus norvegicus, UniProt P31652); test: Inhibition of serotonin (5HT) reuptake in synaptosomes from rat brain; assay type: biochemical; settings: test concentration of 10 μM
# T2 construct: synaptosomes are freshly isolated from areas of the rat brain; from tissue; host or cells: rat brain synaptosomes (P2 fraction)
# T2 sequence (P31652 whole entry): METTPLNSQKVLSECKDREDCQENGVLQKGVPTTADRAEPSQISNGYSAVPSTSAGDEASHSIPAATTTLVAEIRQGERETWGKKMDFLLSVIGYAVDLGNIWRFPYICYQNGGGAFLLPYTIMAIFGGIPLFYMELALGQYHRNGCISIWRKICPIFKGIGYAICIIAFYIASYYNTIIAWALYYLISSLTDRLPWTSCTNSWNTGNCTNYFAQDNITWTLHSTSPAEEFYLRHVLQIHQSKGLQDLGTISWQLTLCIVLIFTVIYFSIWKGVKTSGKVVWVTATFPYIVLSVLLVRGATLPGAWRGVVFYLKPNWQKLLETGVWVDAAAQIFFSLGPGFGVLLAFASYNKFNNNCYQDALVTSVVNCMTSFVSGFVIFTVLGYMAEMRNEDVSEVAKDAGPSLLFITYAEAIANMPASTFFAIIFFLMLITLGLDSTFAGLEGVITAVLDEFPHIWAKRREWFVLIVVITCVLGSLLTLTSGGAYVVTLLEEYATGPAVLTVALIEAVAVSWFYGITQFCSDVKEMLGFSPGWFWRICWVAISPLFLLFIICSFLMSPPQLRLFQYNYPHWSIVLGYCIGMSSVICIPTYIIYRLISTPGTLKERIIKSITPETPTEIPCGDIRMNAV
# Summary of the method: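 Compounds screened at 10 μM and reported as percent inhibition of serotonin uptake. Uptake measured in a freshly prepared P2 synaptosomal fraction from rat brain.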
SMILES,B1R Ant. r [10 μM] % Inhibition [1] [%],"5-HT (inhibition of reuptake of serotonin, % inhibition) [2] [%]"
CN(C)C(c1ccc(F)cc1)C1CCC(NC(=O)COCCN(C)S(=O)(=O)c2c(Cl)cc(Cl)cc2Cl)CC1 (centres unmarked) [Example 382],30,96
COc1ccc(S(=O)(=O)N2CCCCC2CCOCC(=O)NCCC2CCC(C(c3ccc(Cl)cc3)N(C)C)CC2)cc1 (centres unmarked) [Example 383],33,94
CN(C)C(c1ccc(Cl)cc1)C1CCC(CNC(=O)COC2CCN(S(=O)(=O)c3ccc(Cl)cc3)C2)CC1 (centres unmarked) [Example 384],25,87
CN(C)C(c1ccc(F)cc1)C1CCC(CCNC(=O)COCCN(C)S(=O)(=O)c2c(Cl)cc(Cl)cc2Cl)CC1 (centres unmarked) [Example 386],20,98
COc1cc(C)c(S(=O)(=O)N2CCN(CCOCC(=O)NCCC3CCC(C(c4ccc(F)cc4)N(C)C)CC3)CC2)c(C)c1C (centres unmarked) [Example 387],−2,95
COc1cc(C)c(S(=O)(=O)N(CCOCC(=O)NCC2CCC(C(c3cccc(F)c3)N(C)C)CC2)Cc2ccccc2)c(C)c1 (centres unmarked) [Example 388],16,91
COc1ccc(S(=O)(=O)N2Cc3ccccc3CC2COCC(=O)NCCC2CCC(C(c3ccc(F)cc3)N(C)C)CC2)cc1 (centres unmarked) [Example 389],21,93
CN(C)C(c1ccc(F)cc1)C1CCC(CNC(=O)COCCN(C)S(=O)(=O)c2cccc(C(F)(F)F)c2)CC1 (centres unmarked) [Example 390],16,90
CN(C)C(c1ccc(F)cc1)C1CCC(CNC(=O)COC2CCN(S(=O)(=O)c3ccc(Cl)cc3Cl)C2)CC1 (centres unmarked) [Example 391],32,85
COc1cc(C)c(S(=O)(=O)N(C)CCOCC(=O)NCCC2CCC(C(c3ccc(F)cc3)N(C)C)CC2)c(C)c1 (centres unmarked) [Example 392],103,89
Cc1cc(C)c(S(=O)(=O)N2CCC(OCC(=O)NCC3CCC(C(c4ccc(Cl)cc4)N(C)C)CC3)C2)c(C)c1 (centres unmarked) [Example 393],39,70
CN(C)C(c1ccc(Cl)cc1)C1CCC(CNC(=O)COC2CCN(S(=O)(=O)c3ccc(F)cc3)C2)CC1 (centres unmarked) [Example 394],21,93
CN(C)C(c1ccc(Cl)cc1)C1CCC(CCNC(=O)COC2CCCN(S(=O)(=O)c3ccccc3)C2)CC1 (centres unmarked) [Example 395],15,96
CCN(CCOCC(=O)NC1CCC(C(c2ccc(F)cc2)N(C)C)CC1)S(=O)(=O)c1c(C)cc(OC)c(C)c1C (centres unmarked) [Example 396],68,90
COc1cc(C)c(S(=O)(=O)N2CCC(CCOCC(=O)NCCC3CCC(C(c4cccc(F)c4)N(C)C)CC3)CC2)c(C)c1C (centres unmarked) [Example 397],−11,93
COc1ccc(S(=O)(=O)N2CCCCC2CCOCC(=O)NCCC2CCC(C(c3ccc(F)cc3)N(C)C)CC2)cc1 (centres unmarked) [Example 398],56,97
CN(C)C(c1ccc(F)cc1)C1CCC(CNC(=O)COCCN(C)S(=O)(=O)c2ccc(Cl)cc2)CC1 (centres unmarked) [Example 399],29,89
CN(C)C(c1ccc(F)cc1)C1CCC(CNC(=O)COCCN(C)S(=O)(=O)c2ccc(F)cc2)CC1 (centres unmarked) [Example 400],9,103
COc1ccc(S(=O)(=O)N(C)CCOCC(=O)NC2CCC(C(c3cccc(F)c3)N(C)C)CC2)cc1OC (centres unmarked) [Example 401],1,99

SMILES,B1R Ant. r [10 μM] % Inhibition [1] [%],"5-HT (inhibition of reuptake of serotonin, % inhibition) [2] [%]"
CN(C)C(c1ccc(F)cc1)C1CCC(CNC(=O)COC2CCN(S(=O)(=O)c3cccc(C(F)(F)F)c3)C2)CC1 (centres unmarked) [Example 402],45,77
COc1cc(C)c(S(=O)(=O)N2CCC(OCC(=O)NCC3CCC(C(c4ccc(Cl)cc4)N(C)C)CC3)C2)c(C)c1 (centres unmarked) [Example 403],84,93
CN(C)C(c1ccc(F)cc1)C1CCC(CNC(=O)COCCN(C)S(=O)(=O)c2c(Cl)cc(Cl)cc2Cl)CC1 (centres unmarked) [Example 404],33,96
COc1ccc(S(=O)(=O)N2CCCCC2COCC(=O)NCC2CCC(C(c3ccc(F)cc3)N(C)C)CC2)c(OC)c1 (centres unmarked) [Example 405],24,89
CN(C)C(c1ccc(F)cc1)C1CCC(NC(=O)COCCN(C)S(=O)(=O)c2ccc(Cl)cc2)CC1 (centres unmarked) [Example 406],12,93
CN(C)C(c1cccc(F)c1)C1CCC(CCNC(=O)COC2CCN(S(=O)(=O)c3ccc(F)cc3)C2)CC1 (centres unmarked) [Example 407],10,95
CN(C)C(c1ccc(F)cc1)C1CCC(NC(=O)COC2CCN(S(=O)(=O)c3ccccc3)CC2)CC1 (centres unmarked) [Example 408],1,93
COc1ccc(S(=O)(=O)N2CCCC2COCC(=O)NCCC2CCC(C(c3ccc(F)cc3)N(C)C)CC2)cc1 (centres unmarked) [Example 409],48,97
CN(C)C(c1ccc(Cl)cc1)C1CCC(CCNC(=O)COC2CCCCC2N(C)S(=O)(=O)c2ccc(Cl)c(Cl)c2)CC1 (centres unmarked) [Example 410],6,78
CN(C)C(c1ccc(Cl)cc1)C1CCC(CNC(=O)COCCN(C)S(=O)(=O)c2ccc(OC(F)(F)F)cc2)CC1 (centres unmarked) [Example 411],3,91
COc1cc(C)c(S(=O)(=O)N2CCC(OCC(=O)NCCC3CCC(C(c4ccc(Cl)cc4)N(C)C)CC3)C2)c(C)c1C (centres unmarked) [Example 412],−5,95
CCN(CCOCC(=O)NCCC1CCC(C(c2ccc(F)cc2)N(C)C)CC1)S(=O)(=O)c1c(C)cc(OC)c(C)c1C (centres unmarked) [Example 413],83,96
COc1cc(C)c(S(=O)(=O)N(CCOCC(=O)NCC2CCC(C(c3cccc(F)c3)N(C)C)CC2)Cc2ccccc2)c(C)c1C (centres unmarked) [Example 414],10,67
CN(C)C(CCc1ccccc1)C1CCC(CNC(=O)COCC2CCCN2S(=O)(=O)c2ccc(Cl)c(Cl)c2)CC1 (centres unmarked) [Example 415],39,88
Cc1cc(C)c(S(=O)(=O)N(C)CCOCC(=O)NCCC2CCC(C(c3ccc(Cl)cc3)N(C)C)CC2)c(C)c1 (centres unmarked) [Example 416],30,103
COc1cc(C)c(S(=O)(=O)N2CCCC(OCC(=O)NCC3CCC(C(c4ccc(F)cc4)N(C)C)CC3)C2)c(C)c1C (centres unmarked) [Example 418],6,98
COc1cc(C)c(S(=O)(=O)N(CCOCC(=O)NC2CCC(C(c3cccc(F)c3)N(C)C)CC2)Cc2ccccc2)c(C)c1C (centres unmarked) [Example 419],34,76
COc1cc(C)c(S(=O)(=O)N(C)CCOCC(=O)NC2CCC(C(c3ccc(F)cc3)N(C)C)CC2)c(C)c1 (centres unmarked) [Example 422],104,81
